According to publication PMC9743094, “Synthesis and Evaluation of Polymyxins Bearing Reductively Labile Disulfide-Linked Lipids” (Journal of Medicinal Chemistry, 2022):
≈ marks a conversion by molar mass, not a printed value. Read-outs that look alike come from different tables or passages of the source. Positions of bridges follow the written chain, without caps; N, C: chain ends. Non-standard residues stand in square brackets, D forms with d. Residues, ends and D or L forms follow the SMILES beside them. *: point of attachment. S(2-cyclohexylethyl) = C1CCC(CCS*)CC1; S(3-Methylbutyl) = CC(C)CCS*; Dab = NCC[C@H](N)C(=O)O

Experiments:
[1] = system: differentiated conditionally immortalized PTECs (ciPTECs, OAT-1); test: ciPTEC toxicity assay (PrestoBlue); assay type: cell-based, human
Procedure: ciPTECs (OAT-1) cells,[52],[53] grown to 90–100% confluence, were washed by Hanks’ balanced salt solution (HBSS; Gibco, Life Technologies, Paisley, U.K.) and detached by accutase (4 mL) for 5 min at 37 °C. The cells were then suspended in fresh medium (DMEM/F-12, supplemented with 10% fetal calf serum, insulin (5 μg/mL), transferrin (5 μg/mL), selenium (5 μg/mL) hydrocortisone (35 ng/mL), Epidermal Growth Factor (10 ng/mL) and tri-iodothyronine (40 pg/mL)). Cell density was adjusted to 2.0 × 10^5 cells/mL, of which 100 μL was added to each well of a 96-well plate. The cells were incubated for 24 h at 33 °C, followed by 6 days at 37 °C, in a humidified atmosphere containing 5% (v/v) CO2. The medium was refreshed every second or third day.
Compounds were dissolved and serially diluted in serum-free medium. Differentiated cells were washed once with HBSS and serially diluted compounds (80 μL/well) were transferred to the ciPTEC-containing plate. Compounds were incubated for 24 h at 37 °C; the cells were washed by HBSS, followed by incubation with 10% PrestoBlue cell viability reagent (Thermo Scientific, Vienna, Austria) in HBSS at 37 °C in the dark. Fluorescence was recorded (excitation: 530 nm, emission: 590 nm). Raw data are corrected for PrestoBlue background fluorescence and reported relative to the no-treatment control (cells with medium only). Viability data were fitted with GraphPad Prism software (version 5.03; GraphPad Software, La Jolla, CA), by nonlinear regression with 0 as bottom constraint. Presented data are based on triplicates.
Toxicity assessment on PTECs
Table S1. TC50 values for polymyxin analogues. Toxicity assessment on proximal tubular epithelial cells
performed using PrestoBlue™ assay. TC50 values are derived after non-linear regression analysis on cell viability
correspond to data obtained from 2 different batches of cells/analyses on different days. As the value for
polymyxin B differs 2-fold, values in the manuscript are presented relative to the polymyxin B value.
Compound TC50 (µ M) Compound TC50 (µ M)
Polymyxin B 80 Polymyxin B 41
Figure S3. Representative traces of ciPTECs’ viability after incubation with analogues for 24 hours. Shown data are based on […]

P. aeruginosa (PAO1) = assay type: cell-based; settings: PAO1, 2 h
Procedure: (§1) Minimum inhibitory concentrations (MICs) on relevant Gram-negative bacteria were determined by broth microdilution, in accordance with CLSI guidelines. Indicated bacteria were taken from glycerol stocks and incubated overnight on blood agar at 37 °C. Well-isolated colonies were taken, suspended in TSB (5 mL), and grown to an OD600 of 0.5. Compounds to be tested were dissolved in DMSO (6.4 mg/mL), diluted in cation-adjusted Mueller–Hinton Broth (CAMHB) (12.5 and 20 μg/mL Mg^2+ and Ca^2+, respectively), and diluted serially on polypropylene microtiter plates. To the diluted compounds (50 μL per well) was added 50 μL of relevant bacterial suspension, to yield a final concentration of 10^6 CFU/mL. Plates were covered by adhesive gas-permeable membranes and incubated at 37 °C. MIC was read out as the lowest concentration that inhibited visual bacterial growth. Shown values are consistent results from at least duplicate experiments.
(§2) Table S3. MIC values [µg/mL] and relative toxicity values for disulfide containing polymyxin derivative 18b and
(§3) non-disulfide containing analogue 45. […]

A. baumanii (ATCC 17961) = assay type: cell-based; settings: ATCC 17961, 2 h
Procedure: as §1, §2, §3

P. aeruginosa ATCC 10145 = assay type: cell-based; settings: ATCC 10145
Procedure: as §1
(§4) Bacterial strains used for MIC assays and extended MIC assessment
(§5) Strains: The following strains were obtained from BEI Resources, NIAID, NIH: E. Coli M0072, strain
(§6) Table S2. […] Values are given in μg/mL.
(§7) Species Strain ID Resistance Polymyxin B 18b 23a 24a

P. aeruginosa M120 = assay type: cell-based; settings: M120
Procedure: as §1, §4, §5, §6, §7

K. pneumoniae RC0045 = assay type: cell-based; settings: RC0045
Procedure: as §1, §4, §5, §6, §7

A. baumannii BAA-747 = assay type: cell-based; settings: BAA-747
Procedure: as §1, §4, §5, §6, §7

E. coli JS136 = assay type: cell-based; settings: JS136
Procedure: as §1, §4, §5, §6, §7

E. coli 1793 = assay type: cell-based; settings: 1793
Procedure: as §1, §4, §5, §6, §7

P. aeruginosa 2251 = assay type: cell-based; settings: 2251
Procedure: as §1, §4, §5, §6, §7

P. aeruginosa 2018-007 = assay type: cell-based; settings: 2018-007
Procedure: as §1, §4, §5, §6, §7

K. pneumoniae ATCC 29665 = assay type: cell-based; settings: ATCC 29665
Procedure: as §1, §4, §5, §6, §7

E. coli M0072 = assay type: cell-based; settings: M0072
Procedure: as §1, §4, §5, §6, §7

A. baumannii RUH-134 = assay type: cell-based; settings: RUH-134
Procedure: as §1, §4, §5, §6, §7

K. pneumoniae KP1.53 = assay type: cell-based; settings: KP1.53
Procedure: as §1, §4, §5, §6, §7

[2] = system: K. pneumoniae (ATCC 13883); assay type: cell-based; settings: ATCC 13883
Procedure: as §1

[3] = system: A. baumannii (ATCC 19606); assay type: cell-based; settings: ATCC 19606
Procedure: as §1

[4] = system: P. aeruginosa (ATCC 27853); assay type: cell-based; settings: ATCC 27853
Procedure: as §1

E. coli (ATCC 25922) = assay type: cell-based; settings: ATCC 25922
Procedure: as §1

A. baumannii NRZ-00687 = assay type: cell-based; settings: NRZ-00687
Procedure: as §1, §4, §5, §6, §7

Compound	ciPTEC Toxicity Index (relative to polymyxin B) [1]	MIC P. aeruginosa ATCC 10145 (P. aeruginosa ATCC 10145)	MIC P. aeruginosa M120 (P. aeruginosa M120)	MIC K. pneumoniae RC0045 (K. pneumoniae RC0045)	MIC A. baumannii BAA-747 (A. baumannii BAA-747)	MIC E. coli JS136 (E. coli JS136)	MIC E. coli 1793 (E. coli 1793)	MIC P. aeruginosa 2251 (P. aeruginosa 2251)	MIC P. aeruginosa 2018-007 (P. aeruginosa 2018-007)	MIC K. pneumoniae ATCC 29665 (K. pneumoniae ATCC 29665)	MIC E. coli M0072 (E. coli M0072)	MIC A. baumannii RUH-134 (A. baumannii RUH-134)	MIC K. pneumoniae KP1.53 (K. pneumoniae KP1.53)	other results
CC(C)CCSSC[C@@H](N)C(=O)N[C@H](C(=O)N[C@@H](CCN)C(=O)N[C@H]1CCNC(=O)[C@H]([C@@H](C)O)NC(=O)[C@H](CCN)NC(=O)[C@H](CCN)NC(=O)[C@H](CC(C)C)NC(=O)[C@@H](Cc2ccccc2)NC(=O)[C@H](CCN)NC1=O)[C@@H](C)O [Compound 18b] (H-[dC](S(3-Methylbutyl))T[Dab][Dab][Dab][dF]L[Dab][Dab]T; lactam 4-C)	4.7	2 µg/mL (≈ 1.71 µM)	2 µg/mL (≈ 1.71 µM)	0.5 µg/mL (≈ 0.428 µM)	0.5 µg/mL (≈ 0.428 µM)	0.5 µg/mL (≈ 0.428 µM)	0.25 µg/mL (≈ 0.214 µM)	2 µg/mL (≈ 1.71 µM)	2 µg/mL (≈ 1.71 µM)	0.5 µg/mL (≈ 0.428 µM)	0.5 µg/mL (≈ 0.428 µM)	1 µg/mL (≈ 0.856 µM)	1 µg/mL (≈ 0.856 µM)	TC50, Day 1 [1]: 345 µM; TC50, Day 2 ([1]; 24 h): 192 µM; MIC P. aeruginosa (PAO1) (P. aeruginosa (PAO1)): 1 µg/mL (≈ 0.856 µM); MIC A. baumanii (ATCC 17961) (A. baumanii (ATCC 17961)): 0.25 µg/mL (≈ 0.214 µM)
CC(C)C[C@@H]1NC(=O)[C@@H](Cc2ccccc2)NC(=O)[C@H](CCN)NC(=O)[C@@H](NC(=O)[C@H](CCN)NC(=O)[C@@H](NC(=O)[C@H](CSSCCC2CCCCC2)NC(=O)CN)[C@@H](C)O)CCNC(=O)[C@H]([C@@H](C)O)NC(=O)[C@H](CCN)NC(=O)[C@H](CCN)NC1=O [Compound 23a] (H-GC(S(2-cyclohexylethyl))T[Dab][Dab][Dab][dF]L[Dab][Dab]T; lactam 5-C)	9.5	2 µg/mL (≈ 1.58 µM)	2 µg/mL (≈ 1.58 µM)	1 µg/mL (≈ 0.79 µM)	1 µg/mL (≈ 0.79 µM)	0.5 µg/mL (≈ 0.395 µM)	0.5 µg/mL (≈ 0.395 µM)	2 µg/mL (≈ 1.58 µM)	8 µg/mL (≈ 6.32 µM)	1 µg/mL (≈ 0.79 µM)	0.5 µg/mL (≈ 0.395 µM)	1 µg/mL (≈ 0.79 µM)	2 µg/mL (≈ 1.58 µM)	TC50, Day 2 [1]: 391 µM; MIC K. pneumoniae (ATCC 13883) [2]: 1 µg/mL (≈ 0.79 µM); MIC A. baumannii (ATCC 19606) [3]: 1 µg/mL (≈ 0.79 µM); MIC P. aeruginosa (ATCC 27853) [4]: 1 µg/mL (≈ 0.79 µM); MIC E. coli (ATCC 25922) (E. coli (ATCC 25922)): 1 µg/mL (≈ 0.79 µM); MIC A. baumannii NRZ-00687 (A. baumannii NRZ-00687): 0.5 µg/mL (≈ 0.395 µM)
